Measured values: ChEMBL document CHEMBL4765421, “Synthesis of natural 3'-Prenylchalconaringenin and biological evaluation of ameliorating non-alcoholic fatty liver disease and metabolic syndrome” (Eur J Med Chem, 2020)
The source made the active and inactive calls. The calls are words filed in the database; no cut-off is given here.

Assays:
Mus musculus [1] = test: Hypolipidemic activity in tyloxapol-induced Kunming mouse model of hyperlipidemia assessed as reduction in liver total cholesterol level administered orally measured after 24 hrs; type: functional, organism-based
HepG2 [2] = test: Hypolipidemic activity in oleic, palmitic, linoleic and arachidonic acid 29:47:18:6 (v/v)-induced hyperlipidemia in human HepG2 cells assessed as reduction in lipid content at 20 uM by Oil Red O staining based assay relative to control; type: functional; set-up: scale not given: the % may be the effect or the level left
HepG2 [3] = test: Hypolipidemic activity in oleic, palmitic, linoleic and arachidonic acid 29:47:18:6 (v/v)-induced hyperlipidemia in human HepG2 cells assessed as reduction in lipid content by Nile Red and DAPI staining based fluorescence microscopic analysis; type: functional, cell-based
3T3-L1 [4] = test: Cytotoxicity against mouse 3T3-L1 cells assessed as reduction in cell viability by MTT assay; type: cell-based
3T3-L1 [5] = test: Hypolipidemic activity in mouse 3T3-L1 mature adipocytes assessed as reduction in lipid content at 15 uM by Oil Red O staining based assay relative to control; type: functional; set-up: scale not given: the % may be the effect or the level left
3T3-L1 [6] = test: Hypolipidemic activity in mouse 3T3-L1 mature adipocytes assessed as reduction in lipid content at 1 uM by Oil Red O staining based assay relative to control; type: functional; set-up: scale not given: the % may be the effect or the level left
HepG2 [7] = test: Hypolipidemic activity in oleic, palmitic, linoleic and arachidonic acid 29:47:18:6 (v/v)-induced hyperlipidemia in human HepG2 cells assessed as reduction in triglyceride content; type: functional, cell-based
HepG2 [8] = test: Activation of AMPK in oleic, palmitic, linoleic and arachidonic acid 29:47:18:6 (v/v)-induced human HepG2 cells assessed as increase in AMPK phosphorylation at 1 uM by Western blot analysis relative to control; settings: filed as activator
3T3-L1 [9] = test: Activation of AMPK in mouse 3T3-L1 preadipocytes assessed as increase in ACC phosphorylation at 0.1 to 15 uM by Western blot analysis; type: cell-based; settings: filed as activator, dose 0.1-15 µM
3T3-L1 [10] = test: Activation of AMPK in mouse 3T3-L1 matured adipocytes assessed as increase in ACC phosphorylation at 1 uM by Western blot analysis relative to control; type: cell-based; settings: filed as activator
Mus musculus [11] = test: Hypolipidemic activity in tyloxapol-induced Kunming mouse model of hyperlipidemia assessed as reduction in serum IL6 level at 50 to 100 mg/kg, po measured after 24 hrs; type: functional, organism-based; settings: dose 50-100 mg/kg
Mus musculus [12] = test: Hypolipidemic activity in tyloxapol-induced Kunming mouse model of hyperlipidemia assessed as reduction in fatty liver phenotype at 50 to 100 mg/kg, po measured after 24 hrs; type: functional, organism-based; settings: dose 50-100 mg/kg
Mus musculus [13] = test: Hypolipidemic activity in tyloxapol-induced Kunming mouse model of hyperlipidemia assessed as reduction in lipid level in liver at 50 to 100 mg/kg, po measured after 24 hrs by Oil Red O staining based assay; type: functional, organism-based; settings: dose 50-100 mg/kg
Mus musculus [14] = test: Hypolipidemic activity in tyloxapol-induced Kunming mouse model of hyperlipidemia assessed as increase in appearance of hepatic lobules at 50 to 100 mg/kg, po measured after 24 hrs by Oil Red O staining based assay; type: functional, organism-based; settings: dose 50-100 mg/kg
Mus musculus [15] = test: Hypolipidemic activity in tyloxapol-induced Kunming mouse model of hyperlipidemia at 50 to 100 mg/kg, po measured after 24 hrs by Masson's trichrome staining based assay; type: functional, organism-based; settings: dose 50-100 mg/kg
Mus musculus [16] = test: Hypolipidemic activity in tyloxapol-induced Kunming mouse model of hyperlipidemia assessed as reduction in liver fibrosis at 50 to 100 mg/kg, po measured after 24 hrs by Masson's trichrome staining based assay; type: functional, organism-based; settings: dose 50-100 mg/kg
Mus musculus [17] = test: Hypolipidemic activity in tyloxapol-induced Kunming mouse model of hyperlipidemia assessed as reduction in liver LDL-C level administered orally measured after 24 hrs; type: functional, organism-based
Mus musculus [18] = test: Hypolipidemic activity in tyloxapol-induced Kunming mouse model of hyperlipidemia assessed as reduction in liver AST level administered orally measured after 24 hrs; type: functional, organism-based
Mus musculus [19] = test: Hypolipidemic activity in tyloxapol-induced Kunming mouse model of hyperlipidemia assessed as liver index at 100 mg/kg, po measured after 24 hrs (reference value: 65.00 +/- 0.87); type: functional
Mus musculus [20] = test: Hypolipidemic activity in tyloxapol-induced Kunming mouse model of hyperlipidemia assessed as kidney index at 100 mg/kg, po measured after 24 hrs (reference value: 11.20 +/- 0.58); type: functional
Mus musculus [21] = test: Hypolipidemic activity in tyloxapol-induced Kunming mouse model of hyperlipidemia assessed as spleen index at 100 mg/kg, po measured after 24 hrs (reference value: 3.87 +/- 0.05); type: functional
Mus musculus [22] = test: Hypolipidemic activity in tyloxapol-induced Kunming mouse model of hyperlipidemia assessed as liver index at 50 mg/kg, po measured after 24 hrs (reference value: 65.00 +/- 0.87); type: functional
Mus musculus [23] = test: Hypolipidemic activity in tyloxapol-induced Kunming mouse model of hyperlipidemia assessed as perirenal white adipose tissue index at 50 mg/kg, po measured after 24 hrs (reference value: 18.14 +/- 1.44); type: functional
Mus musculus [24] = test: Hypolipidemic activity in tyloxapol-induced Kunming mouse model of hyperlipidemia assessed as epididymis white adipose tissue index at 50 mg/kg, po measured after 24 hrs (reference value: 23.43 +/- 3.10); type: functional
Mus musculus [25] = test: In vivo induction of AMPK in tyloxapol-induced Kunming mouse model of hyperlipidemia assessed as increase in AMPKalpha phosphorylation in liver at 50 to 100 mg/kg, po measured after 24 hrs by Western blot analysis; type: functional, organism-based; settings: dose 50-100 mg/kg
Mus musculus [26] = test: In vivo induction of AMPK in tyloxapol-induced Kunming mouse model of hyperlipidemia assessed as increase in CPT-1A phosphorylation in white adipose tissue at 50 to 100 mg/kg, po measured after 24 hrs by Western blot analysis; type: functional, organism-based; settings: dose 50-100 mg/kg
Mus musculus [27] = test: In vivo induction of AMPK in tyloxapol-induced Kunming mouse model of hyperlipidemia assessed as increase in CPT-1A phosphorylation in liver at 50 to 100 mg/kg, po measured after 24 hrs by Western blot analysis; type: functional, organism-based; settings: dose 50-100 mg/kg
Mus musculus [28] = test: In vivo induction of AMPK in tyloxapol-induced Kunming mouse model of hyperlipidemia assessed as decrease in SREBP1-C expression in liver at 50 to 100 mg/kg, po measured after 24 hrs by Western blot analysis; type: functional, organism-based; settings: dose 50-100 mg/kg
Mus musculus [29] = test: In vivo induction of AMPK in tyloxapol-induced Kunming mouse model of hyperlipidemia assessed as decrease in FAS expression in white adipose tissue at 50 to 100 mg/kg, po measured after 24 hrs by Western blot analysis; type: functional, organism-based; settings: dose 50-100 mg/kg
Mus musculus [30] = test: In vivo effect on PPAR signaling in tyloxapol-induced Kunming mouse model of hyperlipidemia assessed as increase in mTOR phosphorylation in white adipose tissue administered orally measured after 24 hrs by Western blot analysis; type: functional, organism-based
Mus musculus [31] = test: In vivo effect on PPAR signaling in tyloxapol-induced Kunming mouse model of hyperlipidemia assessed as decrease in PPARbeta expression in white adipose tissue at 50 to 100 mg/kg, po measured after 24 hrs by Western blot analysis; type: functional, organism-based; settings: dose 50-100 mg/kg
Mus musculus [32] = test: In vivo effect on PPAR signaling in tyloxapol-induced Kunming mouse model of hyperlipidemia assessed as increase in PPARbeta expression in liver at 50 to 100 mg/kg, po measured after 24 hrs by Western blot analysis; type: functional, organism-based; settings: dose 50-100 mg/kg
Mus musculus [33] = test: In vivo effect on PPAR signaling in tyloxapol-induced Kunming mouse model of hyperlipidemia assessed as decrease in PPARgamma expression in white adipose tissue at 50 to 100 mg/kg, po measured after 24 hrs by Western blot analysis; type: functional, organism-based; settings: dose 50-100 mg/kg

SMILES: CC(C)=CCC/C(C)=C/Cc1c(O)cc(O)c(C(=O)/C=C/c2ccc(O)cc2)c1O
- Activity (Mus musculus [1]): Dose-dependent effect
- Activity (HepG2 [2]): 66.31%
- Activity (HepG2 [3]): Dose-dependent effect
- Activity (3T3-L1 [4]): Non-Toxic
- Activity (3T3-L1 [5]): 72.12%
- Activity (3T3-L1 [6]): 39.16%
- Activity (HepG2 [7]): Dose-dependent effect
- Activity (HepG2 [8]): 42.9%
- Activity (3T3-L1 [9]): Active
- Activity (3T3-L1 [10]): 260%
- Activity (Mus musculus [11]): Active
- Activity (Mus musculus [12]): Active
- Activity (Mus musculus [13]): Active
- Activity (Mus musculus [14]): Active
- Activity (Mus musculus [15]): Active
- Activity (Mus musculus [16]): Active
- Activity (Mus musculus [17]): Dose-dependent effect
- Activity (Mus musculus [18]): Dose-dependent effect
- Activity_index (Mus musculus [19]): 52.78
- Activity_index (Mus musculus [20]): 9.29
- Activity_index (Mus musculus [21]): 2.62
- Activity_index (Mus musculus [22]): 55.64
- Activity_index (Mus musculus [23]): 9.52
- Activity_index (Mus musculus [24]): 14.85
- Activity (Mus musculus [25]): Active
- Activity (Mus musculus [26]): Active
- Activity (Mus musculus [27]): Active
- Activity (Mus musculus [28]): Active
- Activity (Mus musculus [29]): Active
- Activity (Mus musculus [30]): Dose-dependent effect
- Activity (Mus musculus [31]): Active
- Activity (Mus musculus [32]): Active
- Activity (Mus musculus [33]): Active
